This is an account of results in patent US20260200903A1, “PHARMACEUTICAL COMPOSITION FOR AMELIORATING MALIGNANT DISEASES” (KINKI UNIVERSITY, priority 2020, published 2026).

One test concerns L363 cells. Nature of the test: Tumor growth inhibition in mice transplanted with L363 cells. It is filed as in vivo, NOD/ShiJic-scidJcl mice. The conditions noted are these: oral 100 mg/kg daily, day 24, vs control group (P<0.01). On the procedure: L363 cells were transplanted into NOD/ShiJic-scidJcl mice, and the tumor growth inhibitory effect of oral administration of M9 was examined. As a result, a remarkable tumor growth inhibitory effect was observed.
L363 cells were transplanted into NOD/ShiJic-scidJcl mice, and M9 was orally administered to the mice at 100 mg/kg daily on day 0 when the average tumor volume exceeded 100 mm^3, and tumor volume was measured on day 24.
The group that was only implanted with L363 cells is called the target group and the group that was treated with M9 is called the M9-treated group. Each group consisted of 5 animals.
(§1) Referring to the figure, the horizontal axis indicates drug treatment, and the vertical axis indicates tumor volume (percent of the control group).
White bars indicate the control group (labeled “Control”). Black bars indicate the M9 treatment group (labeled “100 mg/kg M9”). Those with significant differences (P<0.01) from the control group are marked with an asterisk (*).

A further test relates to Raji cells. Kind of test: Tumor growth inhibition in mice transplanted with Raji cells. Format: in vivo, NOD/ShiJic-scidJcl mice. To be noted: oral 50 mg/kg daily, day 21, vs control group (P<0.01). As to the method:
Raji cells were transplanted into NOD/ShiJic-scidJcl mice, and the tumor growth inhibitory effect of oral administration of M9 and M14 was examined. As a result, a remarkable tumor growth inhibitory effect was observed.
Raji cells were transplanted into NOD/ShiJic-scidJcl mice, and the mice were orally administered M9 at 50 mg/kg and M14 at 50 mg/kg daily on day 0 when the average tumor volume exceeded 100 mm^3, and the tumor volume was measured on day 21.
The group that was only transplanted with Raji cells is called the control group, the group that was treated with M9 is called the M9-treated group, and the group that was treated with M14 is called the M14-treated group. Each group consisted of 5 animals.
as §1
White bars indicate the control group (labeled “Control”). Black bars indicate the M9 treatment group (labeled “50 mg/kg M9”) and vertical bars indicate the M14 treatment group (labeled “50 mg/kg M14”).

Test [1] has as its system IgG. Nature of the test: IgG secretion in KMS-28BM cells, ELISA. The conditions noted are these: KMS-28BM culture supernatant after 10 days; compounds at 0.005-50 μM; control 1326 ng/mL. Format: cell-based, human. On the procedure: The inhibitory effect of each compound on IgG secretion was examined by enzyme-linked immunosorbent assay (ELISA) using KMS-28BM cells.
(§2) As a control, compounds untreated KMS-28BM cells were seeded in 75 cm^2 flasks and incubated for 10 days at 37° C. and 5% CO2. KMS-28BM cells were seeded into 75 cm^2 flasks and pre-cultured for 4 h. After incubation, KMS-28BM cells were treated with […], 0.05 μM M9, 0.1 μM yk-7, 0.1 μM yk-8-3, 50 μM yk-8-1, 0.5 μM M11, […], 0.005 μM M14, 0.005 μM M15, 0.005 μM M16, 0.5 μM M18, and 0.5 μM M19 at final concentrations, and incubated for 10 days at 37° C. and 5% CO2. After 10 days of incubation, the culture supernatant was collected and IgG secretion was measured by ELISA. This measurement was performed using a human anti-IgG antibody ELISA kit (Funakoshi).
In general terms: In an ELISA, binding on a coated surface is turned into a signal by an enzyme label.

In a further test the test system is IL-6. Nature of the test: IL-6 secretion in KMS-28BM cells, Luminex. It is filed as cell-based, human. The conditions noted are these: KMS-28BM culture supernatant after 10 days; compounds at 0.005-50 μM; control 143 μg/mL. As to the method:
The inhibitory effect of each compound on IL-6 secretion was examined using Luminex in KMS-28BM cells.
as §2, with “the” for “IgG”, “secretion of IL-6, a bone destruction-related factor and a growth-promoting factor,” for “secretion”, “Luminex. The human Magnetic Luminex Assay (R&D)” for “ELISA. This measurement”, “used for this measurement.” for “performed using a human anti-IgG antibody ELISA kit (Funakoshi).”

For test [2], the system named is IgG. Nature of the test: IgG secretion in L363 cells, ELISA. Format: cell-based, human. To be noted: L363 culture supernatant after 10 days; compounds at 0.005-50 μM; control 2098 ng/mL. As to the method: The inhibitory effect of each compound on IgG secretion was examined by enzyme-linked immunosorbent assay (ELISA) using L363 cells.
(§3) As a control, compounds untreated L363 cells were seeded in 75 cm^2 flasks and incubated for 10 days at 37° C. and 5% CO2. L363 cells were seeded into 75 cm^2 flasks and pre-cultured for 4 h. After incubation, L363 cells were treated with 0.1 μM M7, 0.05 μM M9, 0.1 μM yk-7, 0.1 μM yk-8-3, 50 μM yk-8-1, 0.1 μM M11, 0.01 μM M12, 0.005 μM M14, 0.005 μM M15, 0.005 μM M16, 1 μM M18, and 1 μM M19 at final concentrations, and incubated for 10 days at 37° C. and 5% CO2. After 10 days of incubation, the culture supernatant was collected and IgG secretion was measured by ELISA. This measurement was performed using a human anti-IgG antibody ELISA kit (Funakoshi).

The subject of the next test is MIP-1α. Nature of the test: MIP-1α secretion in L363 cells, Luminex. Format: cell-based, human. To be noted: L363 culture supernatant after 10 days; compounds at 0.005-50 μM; control 266 μg/mL. On the procedure: The inhibitory effect of each compound on MIP-1α secretion was examined using Luminex in L363 cells.
as §3, with “the” for “IgG”, “secretion of MIP-la, a bone destruction-related factor and a growth-promoting factor,” for “secretion”, “Luminex. The human Magnetic Luminex Assay (R&D)” for “ELISA. This measurement”, “used for this measurement.” for “performed using a human anti-IgG antibody ELISA kit (Funakoshi).”

As to `CCC(=O)OC[C@H]1O[C@@H](c2c(O)cc3oc4cc(O)c(O)cc4c(=O)c3c2O)[C@H](OC(=O)CC)[C@@H](OC(=O)CC)[C@@H]1OC(=O)CC` [Compound M9, 2′,3′,4′,6′-tetra-O-propionylmangiferin], the “tumor growth (tumor volume, percent of the control group)” value in the test on L363 cells and with Raji cells was “significant inhibition of tumor growth” throughout.
With `CCCC(=O)OC[C@H]1O[C@@H](c2c(OC(=O)CCC)cc3oc4cc(OC(=O)CCC)c(OC(=O)CCC)cc4c(=O)c3c2OC(=O)CCC)[C@H](OC(=O)CCC)[C@@H](OC(=O)CCC)[C@@H]1OC(=O)CCC` [Compound M11, 1,3,2′,3′,4′,6,6′,7-octa-O-butyrylmangiferin], the figures for the IgG secretion in the test on IgG [1] and with IgG [2] were 61 ng/mL and 44 ng/mL, respectively. In the test with IL-6, this compound displayed an IL-6 secretion of 12 µg/mL. In the test with MIP-1α, this compound yielded an MIP-1α secretion of 6 µg/mL.
With `CCCC(=O)OC[C@H]1O[C@@H](c2c(O)cc3oc4cc(O)c(O)cc4c(=O)c3c2O)[C@H](OC(=O)CCC)[C@@H](OC(=O)CCC)[C@@H]1OC(=O)CCC` [Compound M14, 2′,3′,4′,6′-tetra-O-butyrylmangiferin], the “tumor growth (tumor volume, percent of the control group)” value in the test with Raji cells is listed as “significant inhibition of tumor growth”.
`CCCCC(=O)OC[C@H]1O[C@@H](c2c(OC(=O)CCCC)cc3oc4cc(OC(=O)CCCC)c(OC(=O)CCCC)cc4c(=O)c3c2OC(=O)CCCC)[C@H](OC(=O)CCCC)[C@@H](OC(=O)CCCC)[C@@H]1OC(=O)CCCC` [yk-8-1, 1,3,2′,3′,4′,6,6′,7-octa-O-valerylmangiferin]: the IgG secretion is given as 1117 ng/mL in the test on IgG [1] and 1474 ng/mL in the test with IgG [2]. This compound came in with an IL-6 secretion in the test on IL-6 of 84 µg/mL. In the test with MIP-1α, this compound registered an MIP-1α secretion of 179 µg/mL.
